Measured values from patent US10584351B2, “Vectors conditionally expressing therapeutic proteins, host cells comprising the vectors, and uses thereof” (Intrexon Corporation, priority 2010, dated 2020).

Legend:
[1] = system: murine melanoma cancer cells (B16F0); assay: Ad-RTS-mIL12 with different activator doses in the melanoma (B16F0) model; assay type: in vivo, mouse; conditions: activator chow alone
Protocol: Female, 6- to 8-week-old C57b/6 immunocompetent mice were inoculated subcutaneously (s.c.) with murine melanoma cancer cells (B16F0). Ten days post cell inoculation, the mice were randomly assigned to treatment and control groups (n=5) for a total of nine groups: no treatment (control), activator (L) (RG-115932) alone, and AdRTS-mlL12 alone, and Ad-RTS-mIL12 with different activator dose (50, 100, 250, 500 and 1000 mg/kg) of ligand. The cohorts receiving activator (L) were fed rodent 2018 Teklad Global 18% Protein Rodent Diet chow blended with activator (1000 mg/kg chow) ad libitum. Cohorts receiving treatment with Ad-RTS-mIL12 alone or no treatment continued to receive a regular 2018 Teklad Global 18% Protein Rodent Diet chow diet. Treatment was initiated when the tumor reached […]. A single dose of Ad-RTSmIL12 (1e10 vp/100 ul in PBS) was given to mice through intratumoral (i.t.) injection on Day 13 post tumor cell inoculation. The activator (L) chow was given to mice 24 hr prior to vector injection. Tumor size and body weight of each mouse were monitored three times a week using calipers and a weight scale until the end of experiment. The experiment was terminated when the tumor size exceeded >2000 mm^3. Data were uploaded into Study Log animal study software.

[2] = system: murine Lewis lung carcinoma cells (LLC); assay: Ad-RTS-mIL12 in the Lewis lung carcinoma (LLC) model; assay type: in vivo, mouse; conditions: activator (L) chow alone
Description: Female, 6- to 8-week-old C57b/6 immunocompetent mice were inoculated subcutaneously (s.c.) with murine Lewis lung carcinoma cells (LLC). Five days post cell inoculation, the mice were randomized and assigned to treatment and control groups (n=5) for a total of four groups—no treatment (control), activator (RG-115932) alone, AdRTS-mIL12 alone and Ad-RTS-mIL12 plus activator. The cohorts receiving activator (L) were fed (2018 Teklad Global 18% Protein Rodent Diet (Harlan Laboratories) chow blended with activator (1000 mg/kg chow) ad libitum. Cohorts receiving treatment with Ad-RTS-mIL12 alone or no treatment continued to receive a regular diet. Treatment was initiated when the tumor reached 28±6 mm^3. The Ad-RTS-mIL12 (1e10 vp/100 ul in PBS) was given to mice through intratumoral (i.t.) injection on Day 6, 9 and 13 post tumor cell inoculation. Activator chow (L) was started to given to mice 24 hr prior to vector administration. Tumor size and body weight of each mouse were monitored three times a week using calipers and a weight scale until the end of experiment. The experiment was terminated when the mice tumor size exceeded >1200 mm^3. Data were uploaded into Study Log animal study software.

[3] = system: breast cancer (4T1) cells; assay: Ad-RTS-mIL12 in the breast cancer (4T1) model; assay type: in vivo, mouse; conditions: activator ligand alone, Day 26
Protocol: Six- to eight-week-old female BalbC mice were purchased from Charles River Laboratories or Harlan (USA). Animal care and experimental procedure were performed according to the Intrexon's Institutional Animal Care and Use Committee guideline.
Murine breast carcinoma (4T1) cell lines were purchased from ATCC (Manassas, Va.). The 4T1 cells were grown in Roswell Park Memorial Institute medium (RPMI) 1640 (ATCC, Manassas, Va. The medium was supplemented with heat-inactivated fetal calf serum (FCS) 10% v/v, 2-mM L-glutamine (Atlanta Biologicals, Inc, Lawrenceville, Ga.), 100 IU/ml penicillin G, and 100 μg/ml streptomycin. The cells were grown at 37° C. in 5% C02. All cell lines were routinely tested and found to be free of mycoplasma.
Female, 6- to 8-week-old BALB/c immune-competent mice were inoculated subcutaneously (s.c.) with syngenic breast cancer (4T1) cells, 1e5 cells/50 ul. Eight days post cell inoculation, the mice were randomized into groups of five animals each in four groups—no treatment, activator alone, Ad-RTS-mIL12 alone and Ad-RTS-mIL12 plus activator. The cohorts receiving activator ligand were fed rodent chow blended with activator (1000 mg/kg) ad libitum. […] Tumor size and body weight of each mouse were monitored three times a week until the end of experiment. […]

[4] = system: murine colon cancer cells (CT26Luc); assay: Ad-RTS-mIL12 in the colon cancer (CT26Luc) model; assay type: in vivo, mouse; conditions: activator chow alone
Description: Female, 6- to 8-week-old Balb/C immunocompetent mice were inoculated subcutaneously (s.c.) with luciferase expressing stable murine colon cancer cells (CT26Luc). Ten days post cell inoculation, the mice were randomly assigned to treatment and control groups (n=5) for a total of three groups—no treatment (control), activator (L) (RG-115932) alone, and Ad-RTS-mIL12 plus activator. The cohorts receiving activator (L) were fed 2018 Teklad Global 18% Protein Rodent Diet chow (Harlan Laboratories) blended with activator (1000 mg/kg chow) ad libitum. Cohorts receiving no treatment continued to receive 2018 Teklad Global 18% Protein Rodent Diet chow. Treatment was initiated when the tumor reached 40+17 mm^3. The Ad-RTS-mIL12 (1e10 vp/100 ul in PBS) was given to mice through intratumoral (i.t.) injection on Day 11 and 18 post tumor cell inoculation. The activator (L) chow was given to mice 24 hr prior to vector injection. Tumor size and body weight of each mouse were monitored three times a week using calipers and a weight scale until the end of experiment. The experiment was terminated when the mouse tumor size exceeds >2000 mm^3. Data were uploaded into Study Log animal study software.

[5] = system: PAN02 pancreatic cancer cells; assay: Ad-RTS-mIL12 in the pancreatic cancer (PAN02) model; assay type: in vivo, mouse; conditions: activator alone
Protocol: Female, 6- to 8-week-old C57b/6 immuno competent mice were inoculated subcutaneously (s.c.) with syngenic PAN02 pancreatic cancer cells (ATCC). Six days post cell inoculation, the mice were randomized into groups of five animals each in four groups—no treatment, activator (RG-115932) alone, Ad-RTS-mIL12 alone and Ad-RTS-mIL12 plus activator. The cohorts receiving activator ligand were fed 2018 Teklad Global 18% Protein Rodent Diet chow (Harlan Laboratories) blended with activator (1000 mg/kg chow) ad libitum. Cohorts receiving treatment with Ad-RTS-mIL12 alone or no treatment continued to receive 2018 Teklad Global 18% Protein Rodent Diet chow. Mice received treatment with a single intratumoral (i.t.) injection of Ad-RTS-mIL12 at dose level of 1e10 vp/100 ul in PBS, on Day 7 and Day 14 post tumor cell implantation. The tumor size averaged […] at the time of vector treatment initiation.
Tumor size and body weight of each mouse were monitored three times a week until the end of experiment. The experiment was terminated when the mice tumor size exceeded 600 mm^3. Since pancreatic tumors grow very slowly, we defined […]. The tumor growth in mice receiving no treatment was normal.

[6] = system: B16F0 murine melanoma cancer cells; assay: Ad-RTS-IL-12 dose response study in the mouse B16F0 melanoma model; assay type: in vivo; conditions: ligand by itself (chow)
Description: The anti-tumor effect of Ad-RTS-IL-12 has been evaluated in a series of murine tumor models of melanoma, colorectal, pancreatic, breast, lung and renal cancers. An exemplary dose response experiment is shown below. Immuno-competent female C57bl/6 mice (6-8 week old) were inoculated subcutaneously with B16F0 murine melanoma cancer cells. Eleven days after tumor cell inoculation, when macroscopic tumor nodules were evident (tumor volumes averaged approx. 40 mm^3), the mice were separated into groups of 5 animals each. There were 9 groups including: control saline treated; activator ligand treated; Ad-RTS-mIL12 ([…]) alone and 6 groups were treated with different doses of vector Ad-RTS-mIL-12 (1e7, 1e8, 1e9, 5e9, 1e10, 5e10 viral particles) plus activator ligand. Mice in the +ligand groups were provided 100 mg/kg activator ligand in 2018 Teklad Global 18% Protein Rodent Diet (Harlan Laboratories) chow (1000 mg ligand/kg chow) one day before the vector administration. The mice in control groups received 2018 Teklad Global 18% Protein Rodent Diet chow. A single administration of Ad-RTS-mIL12 in 100 ul PBS was injected into tumor on day 12. Tumor volume and body weights were measured every 2-3 days using calipers and a weight scale, and the animals were followed until control tumors reached 2000 mm^3. Data were uploaded into Study Log animal study software.

CCC[C@@H](N(NC(=O)c1cccc(OC)c1CC)C(=O)c1cc(C)cc(C)c1)C(C)(C)C [RG-115932, (R)-3,5-Dimethyl-benzoic acid N-(1-tert-butyl-butyl)-N′-(2-ethyl-3-methoxy-benzoyl)-hydrazide]
anti-tumor activity [1]: did not have anti-tumor activity | tumor growth kinetics versus control [2]: approximately similar tumor growth kinetics | tumor growth inhibition relative to control [3]: 22% | tumor growth inhibition relative to control ([3]; listed as activator ligand (L)): 35% | tumor growth [4]: did not inhibit tumor growth | tumor growth delay [5]: minor tumor growth delay | anti-tumor effect [6]: no effect
